{"source": "paper PMC11167047", "about": "(Cell Death Discovery, 2024)", "assay_in_all_cases": "kinome screen (33PanQinase)", "format_in_all_cases": "biochemical", "key": {"[1]": {"target": "T1, AKT3 (Homo sapiens, UniProt Q9Y243)", "T1 construct": "purchased Reaction Biology Europe GmbH (formerly ProQinase)", "T1 sequence (Q9Y243 whole entry)": "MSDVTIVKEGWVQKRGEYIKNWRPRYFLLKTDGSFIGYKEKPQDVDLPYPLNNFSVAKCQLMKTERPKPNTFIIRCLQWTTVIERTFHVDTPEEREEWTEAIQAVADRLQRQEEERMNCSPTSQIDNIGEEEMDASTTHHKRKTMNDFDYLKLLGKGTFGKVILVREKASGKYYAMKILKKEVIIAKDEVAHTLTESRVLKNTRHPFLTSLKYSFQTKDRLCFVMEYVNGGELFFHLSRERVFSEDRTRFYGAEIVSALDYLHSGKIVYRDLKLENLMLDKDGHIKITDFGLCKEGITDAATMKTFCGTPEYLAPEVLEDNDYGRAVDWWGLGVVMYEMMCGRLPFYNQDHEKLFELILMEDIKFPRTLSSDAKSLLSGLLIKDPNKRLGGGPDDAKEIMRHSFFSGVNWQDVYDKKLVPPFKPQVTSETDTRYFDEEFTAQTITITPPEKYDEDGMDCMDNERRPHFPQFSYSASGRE", "experimental": "(§1) The Kinome Screening was performed by Reaction Biology Europe GmbH (http://reactionbiology.com; Freiburg i. Br., Germany)."}, "[2]": {"target": "T2, CDK6/CycD1 (Homo sapiens, UniProt Q00534)", "T2 construct": "purchased Reaction Biology Europe GmbH (formerly ProQinase)", "T2 sequence (Q00534 whole entry)": "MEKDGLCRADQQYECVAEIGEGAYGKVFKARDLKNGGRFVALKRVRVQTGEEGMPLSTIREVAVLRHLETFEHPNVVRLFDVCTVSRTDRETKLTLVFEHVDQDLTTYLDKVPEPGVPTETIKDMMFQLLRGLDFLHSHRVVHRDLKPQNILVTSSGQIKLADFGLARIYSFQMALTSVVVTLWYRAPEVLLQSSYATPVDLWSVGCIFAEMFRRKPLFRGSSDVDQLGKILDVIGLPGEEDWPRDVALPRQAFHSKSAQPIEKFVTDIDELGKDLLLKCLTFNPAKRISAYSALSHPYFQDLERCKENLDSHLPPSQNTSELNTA", "T2 sequence (P24385 whole entry partner)": "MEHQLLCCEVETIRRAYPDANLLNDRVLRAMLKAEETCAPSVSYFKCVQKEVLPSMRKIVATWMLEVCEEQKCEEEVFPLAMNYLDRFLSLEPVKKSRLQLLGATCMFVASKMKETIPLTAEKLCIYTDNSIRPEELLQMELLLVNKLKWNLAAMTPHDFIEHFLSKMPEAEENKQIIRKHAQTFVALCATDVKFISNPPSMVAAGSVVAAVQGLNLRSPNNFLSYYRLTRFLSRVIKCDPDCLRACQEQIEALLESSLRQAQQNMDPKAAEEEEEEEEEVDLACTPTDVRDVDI", "experimental": "as §1"}, "[3]": {"target": "T3, CK2α2 (Homo sapiens, UniProt P19784)", "T3 construct": "purchased Reaction Biology Europe GmbH (formerly ProQinase)", "T3 sequence (P19784 whole entry)": "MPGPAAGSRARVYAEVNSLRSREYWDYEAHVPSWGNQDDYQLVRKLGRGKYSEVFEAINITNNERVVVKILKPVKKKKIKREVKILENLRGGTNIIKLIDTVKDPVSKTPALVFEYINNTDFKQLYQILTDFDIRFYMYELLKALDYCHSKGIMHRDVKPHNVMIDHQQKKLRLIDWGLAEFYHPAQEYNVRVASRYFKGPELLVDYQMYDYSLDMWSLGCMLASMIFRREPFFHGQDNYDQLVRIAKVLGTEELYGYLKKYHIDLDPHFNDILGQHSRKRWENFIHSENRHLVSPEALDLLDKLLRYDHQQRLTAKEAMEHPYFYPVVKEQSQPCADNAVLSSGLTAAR", "experimental": "as §1"}, "[4]": {"target": "T4, ERK1 (Homo sapiens, UniProt P27361)", "T4 construct": "purchased Reaction Biology Europe GmbH (formerly ProQinase)", "T4 sequence (P27361 whole entry)": "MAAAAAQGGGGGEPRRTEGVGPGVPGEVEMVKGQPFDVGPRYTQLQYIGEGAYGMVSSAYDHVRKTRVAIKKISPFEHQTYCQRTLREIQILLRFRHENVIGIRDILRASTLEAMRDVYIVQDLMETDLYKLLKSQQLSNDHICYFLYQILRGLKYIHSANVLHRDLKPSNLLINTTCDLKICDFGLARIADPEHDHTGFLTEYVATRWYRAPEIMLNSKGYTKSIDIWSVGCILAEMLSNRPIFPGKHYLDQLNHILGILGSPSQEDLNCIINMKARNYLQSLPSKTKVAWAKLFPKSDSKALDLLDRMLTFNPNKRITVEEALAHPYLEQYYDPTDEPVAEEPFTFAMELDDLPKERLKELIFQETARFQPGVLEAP", "experimental": "as §1"}, "[5]": {"target": "T5, HIPK4 (Homo sapiens, UniProt Q8NE63)", "T5 construct": "purchased Reaction Biology Europe GmbH (formerly ProQinase)", "T5 sequence (Q8NE63 1-616)": "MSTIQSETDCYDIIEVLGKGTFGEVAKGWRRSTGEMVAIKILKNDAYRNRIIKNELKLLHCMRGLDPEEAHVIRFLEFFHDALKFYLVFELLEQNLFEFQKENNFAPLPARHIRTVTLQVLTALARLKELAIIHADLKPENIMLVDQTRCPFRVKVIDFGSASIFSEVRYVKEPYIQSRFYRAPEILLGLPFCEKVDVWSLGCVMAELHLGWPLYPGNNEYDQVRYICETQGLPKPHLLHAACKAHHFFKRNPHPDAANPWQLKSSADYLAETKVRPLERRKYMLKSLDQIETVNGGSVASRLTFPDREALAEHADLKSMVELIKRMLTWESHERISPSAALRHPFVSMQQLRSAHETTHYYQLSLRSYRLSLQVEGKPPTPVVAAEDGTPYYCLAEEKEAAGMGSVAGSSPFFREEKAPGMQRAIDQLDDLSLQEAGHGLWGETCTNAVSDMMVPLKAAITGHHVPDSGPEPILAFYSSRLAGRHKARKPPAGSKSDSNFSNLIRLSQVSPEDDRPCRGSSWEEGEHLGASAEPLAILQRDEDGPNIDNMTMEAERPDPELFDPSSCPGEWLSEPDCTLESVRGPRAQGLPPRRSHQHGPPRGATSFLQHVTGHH", "experimental": "as §1"}, "[6]": {"target": "T6, MEKK3 (Homo sapiens, UniProt Q99759)", "T6 construct": "purchased Reaction Biology Europe GmbH (formerly ProQinase)", "T6 sequence (Q99759 1-626)": "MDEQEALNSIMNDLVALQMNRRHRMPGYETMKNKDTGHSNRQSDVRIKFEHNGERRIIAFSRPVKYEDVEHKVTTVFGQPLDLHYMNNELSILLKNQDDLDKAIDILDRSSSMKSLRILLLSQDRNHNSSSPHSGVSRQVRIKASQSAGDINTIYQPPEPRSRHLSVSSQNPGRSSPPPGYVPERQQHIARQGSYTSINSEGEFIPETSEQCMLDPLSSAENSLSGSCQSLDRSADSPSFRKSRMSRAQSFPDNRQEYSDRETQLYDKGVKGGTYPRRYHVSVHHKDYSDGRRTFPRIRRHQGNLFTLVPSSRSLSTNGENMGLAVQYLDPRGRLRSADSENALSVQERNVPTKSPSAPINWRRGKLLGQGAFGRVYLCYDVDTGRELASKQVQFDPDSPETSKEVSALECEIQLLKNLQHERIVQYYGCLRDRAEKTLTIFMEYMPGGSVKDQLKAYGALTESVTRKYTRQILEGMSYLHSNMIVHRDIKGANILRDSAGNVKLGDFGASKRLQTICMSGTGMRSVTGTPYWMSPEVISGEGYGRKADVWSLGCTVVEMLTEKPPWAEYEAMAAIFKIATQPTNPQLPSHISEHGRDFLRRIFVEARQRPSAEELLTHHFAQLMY", "experimental": "as §1"}, "[7]": {"target": "T7, MKK7 (Homo sapiens, UniProt O14733)", "T7 construct": "purchased Reaction Biology Europe GmbH (formerly ProQinase)", "T7 sequence (O14733 1-419)": "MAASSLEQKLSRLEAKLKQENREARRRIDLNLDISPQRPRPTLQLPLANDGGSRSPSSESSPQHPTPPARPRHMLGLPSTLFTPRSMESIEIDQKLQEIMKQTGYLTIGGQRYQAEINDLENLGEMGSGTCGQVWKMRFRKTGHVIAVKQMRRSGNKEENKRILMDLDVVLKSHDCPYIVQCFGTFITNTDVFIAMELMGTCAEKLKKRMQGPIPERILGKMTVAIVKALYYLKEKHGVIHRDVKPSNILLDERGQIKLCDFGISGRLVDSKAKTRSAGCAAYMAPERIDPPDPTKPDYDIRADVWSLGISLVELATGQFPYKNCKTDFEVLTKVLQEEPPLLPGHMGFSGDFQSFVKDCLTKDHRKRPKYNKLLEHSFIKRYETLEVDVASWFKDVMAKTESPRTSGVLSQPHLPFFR", "experimental": "as §1"}, "[8]": {"target": "T8, ROCK1 (Homo sapiens, UniProt Q13464)", "T8 construct": "purchased Reaction Biology Europe GmbH (formerly ProQinase)", "T8 sequence (Q13464 whole entry)": "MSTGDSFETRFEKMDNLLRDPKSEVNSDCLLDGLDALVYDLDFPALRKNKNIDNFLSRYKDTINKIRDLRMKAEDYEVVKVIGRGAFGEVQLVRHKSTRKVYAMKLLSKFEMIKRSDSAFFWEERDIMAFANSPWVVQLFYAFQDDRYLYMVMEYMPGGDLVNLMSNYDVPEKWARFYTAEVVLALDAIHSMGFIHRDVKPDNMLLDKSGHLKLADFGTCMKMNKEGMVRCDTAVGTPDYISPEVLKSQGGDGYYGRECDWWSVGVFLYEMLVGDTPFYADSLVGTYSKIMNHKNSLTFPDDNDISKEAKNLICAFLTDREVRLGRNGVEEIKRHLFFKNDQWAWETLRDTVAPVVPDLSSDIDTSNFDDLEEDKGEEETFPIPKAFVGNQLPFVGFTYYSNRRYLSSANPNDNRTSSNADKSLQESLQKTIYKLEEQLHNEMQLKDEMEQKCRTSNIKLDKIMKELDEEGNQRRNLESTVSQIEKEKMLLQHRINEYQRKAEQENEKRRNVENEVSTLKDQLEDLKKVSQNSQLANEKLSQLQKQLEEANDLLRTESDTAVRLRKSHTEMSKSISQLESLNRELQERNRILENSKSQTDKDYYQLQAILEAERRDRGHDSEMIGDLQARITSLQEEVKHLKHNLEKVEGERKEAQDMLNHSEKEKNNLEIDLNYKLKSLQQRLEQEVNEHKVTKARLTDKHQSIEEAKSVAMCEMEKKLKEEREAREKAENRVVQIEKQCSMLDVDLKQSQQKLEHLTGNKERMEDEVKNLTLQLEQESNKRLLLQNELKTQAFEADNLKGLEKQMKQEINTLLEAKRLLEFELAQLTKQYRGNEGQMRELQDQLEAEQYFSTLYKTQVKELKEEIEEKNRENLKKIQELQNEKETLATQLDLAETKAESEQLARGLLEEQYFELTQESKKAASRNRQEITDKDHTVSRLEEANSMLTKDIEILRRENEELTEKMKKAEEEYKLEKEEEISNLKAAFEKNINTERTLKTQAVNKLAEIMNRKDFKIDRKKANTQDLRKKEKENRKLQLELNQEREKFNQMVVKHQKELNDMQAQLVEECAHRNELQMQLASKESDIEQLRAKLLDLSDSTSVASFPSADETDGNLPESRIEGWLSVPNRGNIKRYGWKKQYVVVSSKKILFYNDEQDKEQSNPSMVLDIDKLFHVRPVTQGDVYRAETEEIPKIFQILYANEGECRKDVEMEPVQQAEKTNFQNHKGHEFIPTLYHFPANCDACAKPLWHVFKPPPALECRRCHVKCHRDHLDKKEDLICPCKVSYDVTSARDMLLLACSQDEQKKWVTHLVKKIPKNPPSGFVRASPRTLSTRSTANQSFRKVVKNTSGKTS", "experimental": "as §1"}, "[9]": {"target": "T9, SGK1 (Homo sapiens, UniProt O00141)", "T9 construct": "purchased Reaction Biology Europe GmbH (formerly ProQinase)", "T9 sequence (O00141 1-431)": "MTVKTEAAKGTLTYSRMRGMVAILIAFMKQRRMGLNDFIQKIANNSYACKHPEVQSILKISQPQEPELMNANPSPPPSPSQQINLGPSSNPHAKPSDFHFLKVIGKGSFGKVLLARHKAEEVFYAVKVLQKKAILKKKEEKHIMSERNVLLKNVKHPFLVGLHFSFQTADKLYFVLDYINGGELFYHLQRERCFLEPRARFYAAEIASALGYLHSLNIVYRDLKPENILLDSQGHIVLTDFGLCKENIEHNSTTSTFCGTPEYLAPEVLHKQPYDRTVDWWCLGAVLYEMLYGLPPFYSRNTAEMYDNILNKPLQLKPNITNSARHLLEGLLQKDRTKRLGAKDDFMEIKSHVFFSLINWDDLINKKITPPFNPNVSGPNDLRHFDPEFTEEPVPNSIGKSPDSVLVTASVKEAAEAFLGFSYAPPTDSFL", "experimental": "as §1"}, "[10]": {"target": "T10, VEGFR1 (Homo sapiens, UniProt P17948)", "T10 construct": "purchased Reaction Biology Europe GmbH (formerly ProQinase)", "T10 sequence (P17948 27-1338)": "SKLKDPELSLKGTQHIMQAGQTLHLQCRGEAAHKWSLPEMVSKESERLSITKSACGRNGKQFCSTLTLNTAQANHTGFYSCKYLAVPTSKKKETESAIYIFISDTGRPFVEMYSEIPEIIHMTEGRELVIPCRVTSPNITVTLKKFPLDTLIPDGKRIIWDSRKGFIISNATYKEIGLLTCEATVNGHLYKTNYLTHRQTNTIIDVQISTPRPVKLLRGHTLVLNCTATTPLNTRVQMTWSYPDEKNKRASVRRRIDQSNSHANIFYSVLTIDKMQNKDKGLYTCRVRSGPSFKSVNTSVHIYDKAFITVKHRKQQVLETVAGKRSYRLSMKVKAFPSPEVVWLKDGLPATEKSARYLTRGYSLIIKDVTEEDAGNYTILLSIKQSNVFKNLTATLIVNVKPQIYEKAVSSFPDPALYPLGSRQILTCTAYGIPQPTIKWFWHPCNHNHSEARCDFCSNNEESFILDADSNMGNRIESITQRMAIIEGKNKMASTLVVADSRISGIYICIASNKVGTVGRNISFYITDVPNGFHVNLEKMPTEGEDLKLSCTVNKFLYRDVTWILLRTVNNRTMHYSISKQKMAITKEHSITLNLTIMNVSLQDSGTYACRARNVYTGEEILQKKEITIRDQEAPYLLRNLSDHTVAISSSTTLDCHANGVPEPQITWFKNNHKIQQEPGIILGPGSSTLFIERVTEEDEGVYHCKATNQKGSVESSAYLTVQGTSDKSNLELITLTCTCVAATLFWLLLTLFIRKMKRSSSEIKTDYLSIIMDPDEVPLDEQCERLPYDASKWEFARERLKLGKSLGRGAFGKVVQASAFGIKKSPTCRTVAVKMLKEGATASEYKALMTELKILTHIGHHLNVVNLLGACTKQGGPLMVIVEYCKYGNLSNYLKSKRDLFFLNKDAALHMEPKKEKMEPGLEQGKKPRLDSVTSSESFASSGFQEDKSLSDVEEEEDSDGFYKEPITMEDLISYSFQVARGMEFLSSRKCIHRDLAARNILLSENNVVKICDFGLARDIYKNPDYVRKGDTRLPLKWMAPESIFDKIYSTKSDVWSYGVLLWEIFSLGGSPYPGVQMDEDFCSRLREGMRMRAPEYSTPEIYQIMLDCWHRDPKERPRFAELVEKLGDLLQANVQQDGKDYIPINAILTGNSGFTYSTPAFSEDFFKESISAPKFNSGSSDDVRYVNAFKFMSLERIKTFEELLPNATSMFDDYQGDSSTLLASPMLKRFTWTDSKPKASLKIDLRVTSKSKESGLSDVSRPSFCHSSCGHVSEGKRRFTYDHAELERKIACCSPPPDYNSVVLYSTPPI", "experimental": "as §1"}}, "data": [{"smiles": "c1ccc(CNc2cc(-c3c[nH]c4ncccc34)ccn2)cc1", "note": "[meriolin 36]", "values": [{"measurement": "residual kinase activity", "setting": "[1]; 0.3 µM", "result": "93 % of control"}, {"measurement": "residual kinase activity", "setting": "[1]; 3 µM", "result": "42 % of control"}, {"measurement": "residual kinase activity", "setting": "[2]; 0.3 µM", "result": "2 % of control"}, {"measurement": "residual kinase activity", "setting": "[2]; 3 µM", "result": "1 % of control"}, {"measurement": "residual kinase activity", "setting": "[3]; 0.3 µM", "result": "91 % of control"}, {"measurement": "residual kinase activity", "setting": "[3]; 3 µM", "result": "43 % of control"}, {"measurement": "residual kinase activity", "setting": "[4]; 0.3 µM", "result": "72 % of control"}, {"measurement": "residual kinase activity", "setting": "[4]; 3 µM", "result": "37 % of control"}, {"measurement": "residual kinase activity", "setting": "[5]; 0.3 µM", "result": "27 % of control"}, {"measurement": "residual kinase activity", "setting": "[5]; 3 µM", "result": "2 % of control"}, {"measurement": "residual kinase activity", "setting": "[6]; 0.3 µM", "result": "66 % of control"}, {"measurement": "residual kinase activity", "setting": "[6]; 3 µM", "result": "26 % of control"}, {"measurement": "residual kinase activity", "setting": "[7]; 0.3 µM", "result": "81 % of control"}, {"measurement": "residual kinase activity", "setting": "[7]; 3 µM", "result": "48 % of control"}, {"measurement": "residual kinase activity", "setting": "[8]; 0.3 µM", "result": "1 % of control"}, {"measurement": "residual kinase activity", "setting": "[8]; 3 µM", "result": "1 % of control"}, {"measurement": "residual kinase activity", "setting": "[9]; 0.3 µM", "result": "30 % of control"}, {"measurement": "residual kinase activity", "setting": "[9]; 3 µM", "result": "10 % of control"}, {"measurement": "residual kinase activity", "setting": "[10]; 0.3 µM", "result": "83 % of control"}, {"measurement": "residual kinase activity", "setting": "[10]; 3 µM", "result": "43 % of control"}]}, {"smiles": "COc1ccnc2[nH]cc(-c3cc(N)nc(N)c3)c12", "note": "[meriolin 16]", "values": [{"measurement": "residual kinase activity", "setting": "[1]; 0.03 µM", "result": "108 % of control"}, {"measurement": "residual kinase activity", "setting": "[1]; 0.3 µM", "result": "82 % of control"}, {"measurement": "residual kinase activity", "setting": "[2]; 0.03 µM", "result": "93 % of control"}, {"measurement": "residual kinase activity", "setting": "[2]; 0.3 µM", "result": "51 % of control"}, {"measurement": "residual kinase activity", "setting": "[3]; 0.03 µM", "result": "110 % of control"}, {"measurement": "residual kinase activity", "setting": "[3]; 0.3 µM", "result": "105 % of control"}, {"measurement": "residual kinase activity", "setting": "[4]; 0.03 µM", "result": "111 % of control"}, {"measurement": "residual kinase activity", "setting": "[4]; 0.3 µM", "result": "96 % of control"}, {"measurement": "residual kinase activity", "setting": "[5]; 0.03 µM", "result": "74 % of control"}, {"measurement": "residual kinase activity", "setting": "[5]; 0.3 µM", "result": "24 % of control"}, {"measurement": "residual kinase activity", "setting": "[6]; 0.03 µM", "result": "106 % of control"}, {"measurement": "residual kinase activity", "setting": "[6]; 0.3 µM", "result": "90 % of control"}, {"measurement": "residual kinase activity", "setting": "[7]; 0.03 µM", "result": "96 % of control"}, {"measurement": "residual kinase activity", "setting": "[7]; 0.3 µM", "result": "88 % of control"}, {"measurement": "residual kinase activity", "setting": "[8]; 0.03 µM", "result": "24 % of control"}, {"measurement": "residual kinase activity", "setting": "[8]; 0.3 µM", "result": "2 % of control"}, {"measurement": "residual kinase activity", "setting": "[9]; 0.03 µM", "result": "92 % of control"}, {"measurement": "residual kinase activity", "setting": "[9]; 0.3 µM", "result": "76 % of control"}, {"measurement": "residual kinase activity", "setting": "[10]; 0.03 µM", "result": "110 % of control"}, {"measurement": "residual kinase activity", "setting": "[10]; 0.3 µM", "result": "89 % of control"}]}]}
